Like-named read-outs stand apart in the source and are kept apart here.
System: S. Typhimurium ATCC14028
Test: Static peg assay for prevention of biofilm formation (Calgary device, crystal violet)
Type: cell-based, Salmonella Typhimurium
Protocol: (§1) Evaluation of the biofilm inhibitory activity of some substituted 2-amino-1H-imidazoles of the invention was carried out by growing up biofilms of S. Typhimurium ATCC14028 or SL1344 or Pseudomonas aeruginosa PA14 in the presence of different concentrations (1/2 dilution series) of biofilm inhibitors, by using the Calgary biofilm device. After an incubation period of 24 hours at 25° C. or 37° C. or 48 hours at 16° C. the biofilms were visualized by crystal violet staining. In the next step the stain was extracted from the biofilm with 30% acetic acid. The absorbance of the resolubilized stain at 570 nm is a measure of the amount of biofilm formed.
In examples 2 and 3, the following materials and methods were used.
The device used for biofilm formation is a platform carrying 96 polystyrene pegs (Nunc no. 445497) that fits as a microtiter plate lid with a peg hanging into each microtiter plate well (Nunc no. 269789). Biofilm formation assays were carried out at 16° C., 25° C. and 37° C.
For biofilm assays at 16° C. and 25° C., two-fold serial dilutions of the compounds in 100 μl liquid TSB 1/20 broth per well were prepared in the microtiter plate. Subsequently, an overnight culture of S. Typhimurium ATCC14028 or SL1344 (grown up in LB medium) was diluted 1:100 into TSB 1/20 broth and 100 μl (ca. 10^6 cells) was added to each well of the microtiter plates, resulting in a total amount of 200 μl medium per well. The pegged lid was placed on the microtiter plate and the plate was incubated for 48 hours at 16° C. or for 24 hours at 25° C. without shaking. During this incubation period biofilms were formed on the surface of the pegs. In case of the assay at 16° C., after 24 hours the lid was transferred into a new plate with medium and the specific molecules used for testing. […] For quantification of biofilm formation, the pegs were washed once in 200 μl phosphate buffered saline (PBS). The remaining attached bacteria were stained for 30 minutes with 200 μl 0.1% (w/v) crystal violet in an isopropanol/methanol/PBS solution (v/v 1:1:18). Excess stain was rinsed off by placing the pegs in a 96-well plate filled with 200 μl distilled water per well. After the pegs were air dried (30 min), the dye bound to the adherent cells was extracted with 30% glacial acetic acid (200 μl). The OD570 of each well was measured using the VERSAmax microtiter plate reader. The IC50 value for each compound was determined from concentration gradients in two or three independent experiments (with 2 or 3 repeats per experiment), by using the GraphPad software of Prism.
For biofilm assays at 37° C., two-fold serial dilutions of the compounds in 50 μl liquid CFA broth per well were prepared in the microtiter plate. Subsequently, an overnight culture of S. Typhimurium ATCC 14028 was diluted 1:100 into CFA broth and 100 μl (ca. 10^6 cells) was added to each well of the microtiter plates, resulting in a total amount of 150 μl medium per well. The pegged lid was placed on the microtiter plate and the plate was incubated for 24 hours at 37° C. without shaking. During incubation the plates were placed in a humidity controlled container to prevent evaporation of the growth medium. Quantification of biofilm formation was performed similarly as described above for the assays at 16° C. and 25° C.
as §1, with “imidazo[1,2-a]pyrimidinium bromide salts” for “2-amino-1H-imidazoles”

[1] = 25° C., 24 hours, Table 15, read-out: (1) IC50 (biofilm inhibition)
[2] = 25° C., Table 16, read-out: S. Typhimurium IC50 (biofilm formation)
[3] = Salmonella enterica, 25° C., 24 hours, Table 15, read-out: (1) IC50 (biofilm inhibition)
[4] = 25° C., Table 11, read-out: IC50 (biofilm formation)
[5] = 25° C., Table 14, read-out: IC50 biofilm inhibition
[6] = 25° C., Table 19, read-out: IC50 (biofilm formation)
[7] = S. Typhimurium ATCC 14028, 25° C., read-out: S. Typhimurium IC50 (biofilm formation)
[8] = S. Typhimurium ATCC 14028, 25° C., read-out: IC50 for biofilm inhibition (25° C.)
[9] = Salmonella enterica, 25° C., Table 11, read-out: IC50 (biofilm formation)
[10] = Salmonella enterica, 25° C., Table 14, read-out: IC50 biofilm inhibition
[11] = 25° C., strain not given, read-out: IC(50), preventive activity against S. typhimurium biofilms

## CCCCCCCCCCN1c2nccc[n+]2CC1(O)c1ccc(-c2ccc(-c3ccc([N+](=O)[O-])cc3)cc2)cc1 (racemic)
[1]
  IC50: 525 µM

## CN1c2nccc[n+]2CC1(O)c1ccc(Cl)cc1 (racemic) [Compound 15]
[2]
  IC50: 225 µM

## CN1c2nccc[n+]2CC1(O)c1ccc([N+](=O)[O-])cc1 (racemic) [Compound 28]
[2]
  IC50: 698 µM

## CCCCCCCCCCN1c2nccc[n+]2CC1(O)c1cccc2ccccc12 (stereo not drawn) [1-decyl-2-hydroxy-2-(1-naphthalenyl)-2,3-dihydro-1H-imidazo[1,2-a]pyrimidin-4-ium bromide]
[3]
  IC50: 68.9 µM

## CCCCCCCCCCN1c2nccc[n+]2CC1(O)c1cccc(Br)c1 (stereo not drawn) [1-decyl-2-hydroxy-2-(3-bromophenyl)-2,3-dihydro-1H-imidazo[1,2-a]pyrimidin-4-ium bromide]
[3]
  IC50: 33.8 µM

## CCCCCCCCCCN1c2nccc[n+]2CC1(O)c1ccc(S(C)(=O)=O)cc1 (stereo not drawn) [1-decyl-2-hydroxy-2-(4-methylsulfonylphenyl)-2,3-dihydro-1H-imidazo[1,2-a]pyrimidin-4-ium bromide]
[3]
  IC50: 21.9 µM

## CCCCCCCCCCN1c2nccc[n+]2CC1(O)c1ccc(SC)cc1 (stereo not drawn) [1-decyl-2-hydroxy-2-(4-methylthiophenyl)-2,3-dihydro-1H-imidazo[1,2-a]-pyrimidin-4-ium bromide]
[3]
  IC50: 45.7 µM

## CCCCCCCCCCN1c2nccc[n+]2CC1(O)c1ccc(-c2ccc([N+](=O)[O-])cc2)cc1 (stereo not drawn) [1-decyl-2-hydroxy-2-(4′-nitro[1,1′-biphenylyl]-4-yl)-2,3-dihydro-1H-imidazo[1,2-a]pyrimidin-4-ium bromide]
[1]
  IC50: 200 µM

## CCCCCCCC[n+]1c(-c2ccc(-c3ccc(-c4ccccc4)cc3)cc2)cn2cccnc21.[O-][Cl+3]([O-])([O-])[O-] [1-octyl-2-([1,1′:4′,1″-terphenyl]-4-yl)-imidazo[1,2-a]pyrimidin-1-ium perchlorate]
Salmonella enterica, 24 h, read-out: (1) IC50 (biofilm inhibition)
  IC50: 5.03 µM

## CN1c2nccc[n+]2CC1(O)c1ccc(F)cc1 (stereo not drawn) [Compound 37]
[2]
  IC50: > 800 µM

## CCCCN1c2nccc[n+]2CC1(O)c1ccc(F)cc1 (stereo not drawn) [Compound 38]
[4]
  IC50: 175 µM
[5]
  IC50: 175 µM
[2]
  IC50: 163 µM

## CCCCCCCCCCN1c2nccc[n+]2CC1(O)c1ccc(F)cc1 (stereo not drawn) [Compound 40]
[1]
  IC50: 20 µM
[2]
  IC50: 20 µM

## CCCCN1c2nccc[n+]2CC1(O)c1ccc(Br)cc1 (stereo not drawn) [Compound 41]
[4]
  IC50: 64.9 µM
[5]
  IC50: 64.9 µM
[2]
  IC50: 90.1 µM

## CC(C)CN1c2nccc[n+]2CC1(O)c1ccc(Br)cc1 (stereo not drawn) [Compound 42]
[2]
  IC50: 5.2 µM

## CCCCCN1c2nccc[n+]2CC1(O)c1ccc(Br)cc1 (stereo not drawn) [Compound 43]
[2]
  IC50: 1.7 µM

## CN1c2nccc[n+]2CC1(O)c1cccc([N+](=O)[O-])c1 (stereo not drawn) [Compound 44]
[2]
  IC50: 564 µM

## CCCCN1c2nccc[n+]2CC1(O)c1ccc(OC)cc1 (stereo not drawn) [Compound 45]
[2]
  IC50: 314 µM

## CCCCCCCCCCN1c2nccc[n+]2CC1(O)c1ccc(OC)cc1 (stereo not drawn) [Compound 47]
[1]
  IC50: 18.6 µM
[2]
  IC50: 18.6 µM

## CC(C)CN1c2nccc[n+]2CC1(O)c1ccc(Cl)c(Cl)c1 (stereo not drawn) [Compound 48]
[2]
  IC50: 8 µM

## CCCCCCCCCCN1c2nccc[n+]2CC1(O)c1ccc(Cl)c(Cl)c1 (stereo not drawn) [Compound 50]
[1]
  IC50: 32.4 µM
[2]
  IC50: 32.4 µM

## O=[N+]([O-])c1ccc(C2(O)C[n+]3cccnc3N2C2CC2)cc1 (stereo not drawn) [Compound 68]
25° C., Table 18, read-out: S. Typhimurium IC50 (biofilm formation)
  IC50: 125 µM

## O=[N+]([O-])c1ccc(C2(O)C[n+]3cccnc3N2Cc2ccccc2)cc1 (stereo not drawn) [Compound 72]
[4]
  IC50: 222 µM
[5]
  IC50: 222 µM
[6]
  IC50: 174 µM

## COc1ccc(CN2c3nccc[n+]3CC2(O)c2ccc(Br)cc2)cc1 (stereo not drawn) [Compound 74]
[4]
  IC50: 105 µM
[5]
  IC50: 105 µM
[6]
  IC50: 110 µM

## COc1cccc(CCN2c3nccc[n+]3CC2(O)c2ccc([N+](=O)[O-])cc2)c1 (stereo not drawn) [Compound 75]
[4]
  IC50: 124 µM
[5]
  IC50: 124 µM
[6]
  IC50: 124 µM

## COc1cccc(CCN2c3nccc[n+]3CC2(O)c2ccc(F)cc2)c1 (stereo not drawn) [Compound 76]
[6]
  IC50: 105 µM

## CCCCCCCCCNc1nc(-c2ccc(Cl)cc2)c[nH]1 [Compound 89]
[7]
  IC50: > 800 µM

## CNc1ncc(-c2ccc(F)c(F)c2)[nH]1 [Compound 112]
[7]
  IC50: 602 µM

## CNc1ncc(-c2ccc(O)cc2)[nH]1 [Compound 113]
[7]
  IC50: 160 µM

## CCCCNc1nc(-c2ccccc2)c[nH]1 [R1=H, R2=Butyl, R3=H, R4=Ph]
[8]
  IC50: 25 µM

## CCCCNc1nc(-c2ccc(Br)cc2)c[nH]1 [R1=H, R2=Butyl, R3=H, R4=p-Br—Ph]
[8]
  IC50: 7 µM

## CCCCNc1nc(-c2ccc(OC)cc2)c[nH]1 [R1=H, R2=Butyl, R3=H, R4=p-MeO—Ph]
[8]
  IC50: 49 µM

## O=[N+]([O-])c1ccc(-c2c[nH]c(NC3CCCCC3)n2)cc1 [R1=H, R2=Cyclohexyl, R3=H, R4=p-NO2—Ph]
[8]
  IC50: 44 µM

## CNc1nc(-c2ccc(F)cc2)c[nH]1 [R1=H, R2=Methyl, R3=H, R4=p-F—Ph]
[8]
  IC50: 102 µM

## c1ccc(-c2ccc(-c3c[nH]c(NC4CCCC4)n3)cc2)cc1 [R1=H, R2=cyclopentyl, R3=H, R4=Bi—Ph]
[8]
  IC50: 46 µM

## c1ccc(-c2c[nH]c(NC3CCCC3)n2)cc1 [R1=H, R2=cyclopentyl, R3=H, R4=Ph]
[8]
  IC50: 53 µM

## O=[N+]([O-])c1ccc(-c2c[nH]c(NC3CCCC3)n2)cc1 [R1=H, R2=cyclopentyl, R3=H, R4=p-NO2—Ph]
[8]
  IC50: 12 µM

## Cc1ccc(-c2c[nH]c(NC(C)C)n2)cc1 [R1=H, R2=i-Propyl, R3=H, R4=p-Me—Ph]
[8]
  IC50: 99 µM

## CCCCCCN1c2nccc[n+]2C(C)C1(O)c1ccccc1 (stereo not drawn) [R1=Hexyl, R3=Ph, R4=Me, 1-hexyl-2-hydroxy-2-phenyl-3-methyl-2,3-dihydro-1H-imidazo[1,2-a]pyrimidin-4-ium bromide]
[9]
  IC50: 218 µM
[10]
  IC50: 218 µM

## Cc1ccc(C2(O)C[n+]3cccnc3N2C(C)C)cc1 (stereo not drawn) [R1=Isopropyl, R3=4-Me—Ph, R4=H, 1-isopropyl-2-hydroxy-2-(4-methylphenyl)-2,3-dihydro-1H-imidazo[1,2-a]pyrimidin-4-ium bromide]
[9]
  IC50: 217 µM
[10]
  IC50: 217 µM

## N#Cc1ccc(C2(O)C[n+]3cccnc3N2C2CCCCC2)cc1 (stereo not drawn) [R1=cyclohexyl, R3=4-CN—Ph, R4=H, 1-cyclohexyl-2-hydroxy-2-(4-cyanophenyl)-2,3-dihydro-1H-imidazo[1,2-a]pyrimidin-4-ium bromide]
[9]
  IC50: 354 µM
[10]
  IC50: 354 µM

## COc1ccc(CN2c3nccc[n+]3CC2(O)c2ccc([N+](=O)[O-])cc2)cc1 (stereo not drawn) [R1=p-MeOBn, R3=4-NO2-Ph, R4=H, 1-(4-methoxybenzyl)-2-hydroxy-2-(4-nitrophenyl)-2,3-dihydro-1H-imidazo[1,2-a]pyrimidin-4-ium bromide]
[9]
  IC50: 220 µM
[10]
  IC50: 220 µM

## Clc1ccc(-c2cnc(NCCn3cc(C4CCCCC4)nn3)[nH]2)cc1Cl [R3=3,4-diClPh; R4=H; R9=c-hexyl; n=2]
[11]
  IC50: 55.2 µM

## Clc1ccc(-c2cnc(NCCCn3cc(C4CCCCC4)nn3)[nH]2)cc1Cl [R3=3,4-diClPh; R4=H; R9=c-hexyl; n=3]
[11]
  IC50: 26.8 µM

From patent US20130029981A1, “COMPOUNDS, COMPOSITIONS, AND METHODS FOR CONTROLLING BIOFILMS” (Katholieke Universiteit Leuven, priority 2009, published 2013)
